Assay results from patent publication US4696920A, “Certain 2-substituted 1,3-propylidenediphosphonate derivatives, pharmaceutical compositions containing them and their use as antihypertensive agents” (priority 1984, dated 1987).

Legend:
[1] = test system: [^3 H]-PN-200 110 (dihydropyridine) binding site of calcium channel, rat brain membranes; experiment: [^3 H]-PN-200 110 binding to rat brain membranes; design: species or system rat (male Wistar); conditions: for Specifically bound [^3 H]-PN-200 110 % of control value: compound concentration 1.0 μM; for Specifically bound [^3 H]-PN-200 110 % of control value / Bound ^3 H at 1.0 μM / Bound ^3 H at 0.1 μM: Table 1b; for Bound ^3 H at 1.0 μM / Bound ^3 H at 0.1 μM: ratio of [^3 H]-PN-200 110 bound at 1.0 and 0.1 μM compound
Procedure: Diltiazem hydrochloride was a generous gift from Goedecke A. G.
Water insoluble compounds were dissolved in absolute ethanol to give 10 mM or 2.5 mM stock solutions. Suitable dilutions were made in 50 mM Tris-HCl buffer (pH 7.4) containing 150 mM NaCl and 1 mM CaCl2. The ethanol concentration in the final assay never exceeded 0.1%.
The purity of the radioligand and of the various agents tested was monitored by thin layer chromatography on silica gel plates.
The following procedure was adapted from Bellemann et al (Proc. Nat. Acad. Sci. 80, 2356, 1983), and Gould et al (Proc. Nat. Acad. Sci. 79, 3656, 1982).
Adult male Wistar rats weighing 250-300 g were anesthetized with carbon dioxide prior to decapitation. The brain was removed then immersed in ice-cold 0.32M sucrose and washed 2-3 times with fresh solution. Cerebral cortex was minced and homogenized (Potter-Elvehjem homogenizer) in 10 volumes of ice-cold sucrose solution. The homogenate was centrifuged (4° C.) at 1000×g for 15 minutes. The resulting supernatant was then centrifuged at 90000×g (30 minutes) and the pellet was washed twice with 20 ml ice-cold 50 mM Tris-HCl pH 7.4.
The final pellet was resuspended in 50 mM Tris-HCl pH 7.4/150 mM NaCl/1 mM CaCl2 to give a protein concentration of 4 mg/ml.
The membrane suspension was kept on ice until used. Binding assays were performed in subdued light to prevent dihydropyridine breakdown. Membrane protein (400 μg/tube) was incubated in 50 mM Tris-HCl buffer (pH 7.4)/150 mM NaCl/1 mM CaCl2 with the indicated concentrations of radioligand and test compounds or known calcium antagonists, in a total volume of 2 ml. After the indicated time intervals, the reaction was terminated by rapid filtration through Whatman GF/B glass fiber filters (2.4 cm diameter) on a Millipore filter holder. The assay tube was rinsed with 2 ml ice-cold 50 mM Tris-HCl pH (7.4) and the precipitate was further washed with 2×5 ml of the same buffer.
Filters were dried under a heat lamp and were extracted with 10 ml of liquid scintillation cocktail (Toluene/Triton X-100, 2/1 containing 4 g Omnifluor/1) prior to tritium determination at 48% counting efficiency.
Assays were performed in duplicate or triplicate.
Data were expressed as percent specific [^3 H]-Nitrendipine binding relative to the established control value.
Compound activity in the [^3 H]-Nitrendipine binding assay was evaluated by using the following criteria:
1. [^3 H]-Nitrendipine binding at 1.0 μM compound final concentration was either below 95% or above 105% of the control value determined in absence of compound.
2. The ratio obtained by dividing the amount of specifically found [^3 H]-Nitrendipine at 1.0 μM compound final concentration by the value obtained at 0.1 μM test compound, was smaller than 0.9 or greater than 1.1. This ratio is indicative of a dose response relationship within the compound concentration range tested, when the value differs appreciably from 1.0.
Note: In some experiments [^3 H]-PN200 110, a new and commercially available specific dihydropyridine was used instead of [^3 H]-Nitrendipine.

[2] = test system: drug receptor sites associated with calcium channels; conditions: known calcium antagonists; cited from earlier work
[3] = test system: mean blood pressure in rat; experiment: Acute intravenous hypotensive activity in anesthetized rats; type: in vivo, rat (male Wistar); conditions: Rattus norvegicus, iv, read-out: Decrease in mean blood pressure (% pretest)
Procedure: Male Wistar rats were anesthetized with Pentobarbital (Nembutal, 60 mg/kg i.p.) and heparinized (5 mg/kg i.p.). After tracheotomy the right carotid was cannulated (catheter PE 50); blood pressure was measured with a pressure transducer (Statham P 23 db) and recorded on a polygraph (Beckman).
Animals received 0.5 and 1.5 mg/kg of the test compounds. Less than 100 μl of test compounds dissolved in 0.9% saline were injected in the jugular vein. Highly water insoluble compounds were suspended in 2% Tween-80. Injection of the vehicle alone had no detectable hypotensive effect.
Results presented are expressed as percent decrease in initial mean blood pressure (Mean±SEM).

SMILES | Specifically bound [^3 H]-PN-200 110 % of control value [1] | Bound ^3 H at 1.0 μM / Bound ^3 H at 0.1 μM [1] | further results
CCCCOP(=O)(CC(Cc1cc2c(cc1Cl)OCO2)CP(=O)(OCCCC)OCCCC)OCCCC [Compound 99] | 56 % of control value | 0.627 | 
CCCCOP(=O)(CC(CCOc1ccc(-c2ccccc2)cc1)CP(=O)(OCCCC)OCCCC)OCCCC [Compound 100] | 38 % of control value | 0.504 | 
CCCCOP(=O)(CC(Cc1cnc(C)c2c1COC(C)(C)O2)CP(=O)(OCCCC)OCCCC)OCCCC [Compound 101] | 47 % of control value | 0.527 | 
CCCCOP(=O)(CC(Cc1cnc(C)c(O)c1CO)CP(=O)(OCCCC)OCCCC)OCCCC [Compound 102, Tetrabutyl 2-[5-(3-hydroxy-4-hydroxymethyl-2-methyl)pyridylmethyl]1,3-propylidenediphosphonate] | 89 % of control value | 0.925 | 
CCCCOP(=O)(CC(Cc1ccc(CN2CCN(c3ccccc3)CC2)cc1)CP(=O)(OCCCC)OCCCC)OCCCC [Compound 104] | 59 % of control value | 0.687 | 
CCCCOP(=O)(CC(CCCC1(C)OCCO1)CP(=O)(OCCCC)OCCCC)OCCCC [Compound 106] | 42 % of control value | 0.570 | potency in [^3 H]-PN200 110 binding (in words) ([1]; text on Table 1b): as potent as Nifedipine
C=CCCOP(=O)(CC(CCOc1ccccc1)CP(=O)(OCCC=C)OCCC=C)OCCC=C [Compound 110] | 13 % of control value | 0.294 | 
COc1ccc(CCN(C)CCCC(C#N)(c2cc(OC)c(OC)c(OC)c2)C(C)C)cc1OC [Compound D-600] |  |  | effect on [^3 H]-Nitrendipine binding (in words) [2]: reduce [^3 H]-Nitrendipine binding affinity
Fc1ccc(C(c2ccc(F)cc2)N2CCN(C/C=C/c3ccccc3)CC2)cc1 [Flunarizine] |  |  | effect on [^3 H]-Nitrendipine binding (in words) [2]: reduce [^3 H]-Nitrendipine binding affinity
Cc1cccc(C)c1NC(=O)CN1CCN(CCCC(c2ccc(F)cc2)c2ccc(F)cc2)CC1 [Lidoflazine] |  |  | effect on [^3 H]-Nitrendipine binding (in words) [2]: reduce [^3 H]-Nitrendipine binding affinity
C[C@](N)(Cc1ccc(O)c(O)c1)C(=O)O [Methyl Dopa, reference compound] |  |  | inhibition in vivo at 1 mg/kg [3]: 0%
CC(C)NCC(O)COc1cccc2ccccc12 (centres unmarked) [Propranolol, reference compound] |  |  | inhibition in vivo at 1 mg/kg [3]: 11.8 ± 1.1%
